{"source": "patent US20100249064A1", "about": "“METHODS AND COMPOSITIONS FOR TREATING DISEASES AND CONDITIONS INVOLVING HIGHER MOLECULAR WEIGHT HYALURONAN” (University of Chicago, priority 2007, published 2010)", "key": {"ARDS": {"system": "ARDS", "conditions": "cited from earlier work; for Outcome (clinical trials in ARDS): patients with ARDS"}, "MARCKS and NHE1": {"system": "MARCKS and NHE1", "test": "LPS-induced phosphorylation of MARCKS and NHE1 (immunoprecipitation/immunoblot)", "assay_type": "cell-based, human", "conditions": "LPS 1 μg/ml, 4 hours, HMW-HA 100 nM or Y-27632 500 nM"}, "[1]": {"system": "c-Met, CD44v10, Tiam1, cortactin, dynamin 2 in CEM", "test": "HGF-induced recruitment of proteins to caveolin-enriched microdomains (CEM)", "assay_type": "cell-based, human", "method": "Caveolin-enriched microdomain (CEM) isolation—Caveolin-enriched microdomain known as detergent-resistant membranes (DRM) or lipid rafts were isolated from HPMVEC (Singleton et al., 2006; Singleton et al., 2005). Triton X-100-insoluble materials were mixed with 0.6 ml of cold 60% Optiprep™ and then overlaid with 0.6 ml of 40%-20% Optiprep™. Gradients were centrifuged (35,000 rpm) in SW60 rotor for 12 h at 4° C. and different fractions were collected and analyzed.\nImmunoprecipitation and Immunoblotting—Cellular materials from treated or untreated HPMVEC were incubated with IP buffer (50 mM HEPES (pH 7.5), 150 mM NaCl, 20 mM MgCl2, 1% Nonidet P-40 (NP-40), 0.4 mM Na3VO4, 40 mM NaF, 50 μM okadaic acid, 0.2 mM phenylmethylsulfonyl fluoride, 1:250 dilution of Calbiochem protease inhibitor mixture 3). Following immunoprecipitation with either anti-CD44 or anti-dynamin 2 IgG, the samples were subjected to SDS-PAGE in 4-15% polyacrylamide gels, transferred onto Immobilon™ membranes, and developed with specific primary and secondary antibodies. Enhanced chemiluminescence (Amersham Biosciences) was used to visualize immunoreactive bands. In some instances, standardized average grey values (S.A.G.V., processed from ImageQuant™ software (Amersham Biosciences)) were obtained for immunoreactive bands for quantification.\nDetermination of Complex Formation between CD44 and c-Met—Solubilized CEM proteins in IP buffer (see above) were immunoprecipitated with rat anti-CD44 antibody or anti-c-Met antibody followed by SDS-PAGE in 4-15% polyacrylamide gels and transfer onto Immobilon™ membranes (Millipore Corp., Bedford, Mass.). Nonspecific sites were blocked with 5% bovine serum albumin, and then the blots were incubated with either rat anti-CD44 antibody or mouse anti-c-Met antibody followed by incubation with horseradish peroxidase (HRP)-labeled goat anti-mouse or goat anti-rat IgG. Visualization of immunoreactive bands was achieved using enhanced chemiluminescence (Amersham Biosciences)."}, "Rac1": {"system": "Rac1", "test": "Rac1 activation assay, HGF", "assay_type": "cell-based, human", "conditions": "HGF 25 ng/ml", "method": "Rac1 Activation Assay—Rac1 activity assays were performed as described (Ren et al., 1999) in human lung EC."}, "[2]": {"system": "LPS-induced murine lung vascular permeability", "test": "LPS-induced murine lung vascular permeability, bronchioalveolar lavage (BAL) protein and cytokines", "assay_type": "in vivo, mouse", "method": "Animal Preparation and Treatment—Male C57BL/6J and CD44 knockout mice (8-10 weeks, Jackson Laboratories, Bar Harbor, Me.) were anesthetized with intraperitoneal ketamine (150 mg/kg) and acetylpromazine (15 mg/kg) according to approved protocols. LPS (2.5 mg/kg) or saline (control) were instilled intratracheally and four hours later, HGF (50 μg/kg) or saline control delivered intravenously through the internal jugular vein. The animals were allowed to recover for 24 h followed by bronchioalveolar lavage protein analysis and/or lung immunohistochemistry.\nDetermination of Bronchioalveolar Lavage Protein Concentration—Bronchioalveolar lavage (BAL) was performed by an intratracheal injection of 1 cc of Hank's balanced salt solution followed by gentle aspiration. The recovered fluid was processed for protein concentration (BCA Protein Assay Kit; Pierce Chemical Co., Rockford, Ill.) as described (Su et al., 2004).\nAnimals. Male C57BL/6J mice, CD44 knockout mice, Caveolin-1 knockout mice (8-10 weeks, Jackson Laboratories, Bar Harbor, Me.) were anesthetized with intraperitoneal ketamine (150 mg/kg) and acetylpromazine (15 mg/kg) according to approved protocols. LPS (2.5 mg/kg) or saline (control) were instilled intratracheally and four hours later, HMW-HA (1.5 mg/kg) or saline control delivered intravenously through the internal jugular vein. The animals were allowed to recover for 24 hours followed by bronchioalveolar lavage protein analysis and/or lung immunohistochemistry.\nDetermination of protein concentration. Total protein concentration. TGF-alpha concentration. TGF-beta1 concentration. Bronchioalveolar lavage (BAL) was performed by an intratracheal injection of 1 cc of Hank's balanced salt solution followed by gentle aspiration. The recovered fluid was processed for protein concentration (BCA Protein Assay Kit; Pierce Chemical Co., Rockford, Ill.) or used to determine TNF-α and TGF-β1 concentrations using quantitative sandwich enzyme immunoassays (R & D Systems, Minneapolis, Minn.).\nAnimal Preparation and Treatment. Male C57BL/6J, B6129N2, CD44^−/− or caveolin-1^−/− mice (8-10 weeks, Jackson Laboratories, Bar Harbor, Me.) were anesthetized with intraperitoneal ketamine (150 mg/kg) and acetylpromazine (15 mg/kg) before exposure of the right internal jugular vein via neck incision. LPS (2.5 mg/kg) or water (control) were instilled intratracheally. Four hours later, mice receive high MW HA (1.5 mg/kg) or water control through the internal jugular vein. The animals were allowed to recover for 24 hours after LPS before bronchioalveolar lavage protein and cytokine concentration and/or lung immunohistochemistry/immunoblot analysis (Peng et al., 2004).\nDetermination of Bronchoavleolar Lavage Protein and Cytokine Concentration. Bronchioalveolar lavage (BAL) was performed by an intratracheal injection of 1 cc of Hank's balanced salt solution followed by gentle aspiration. The recovered fluid was processed for protein concentration (BCA Protein Assay Kit; Pierce Chemical Co., Rockford, Ill.) (Peng et. al., 2004). Cytokines (IL-6, TNFalpha) were measured using a Quantikine sandwich ELISA kit (R & D Systems)."}, "[3]": {"target": "Hyaluronic Acid Binding Protease 2 (HABP2), human (human, UniProt Q14520 24-560, limits assumed)", "sequence (Q14520 24-560 limits assumed)": "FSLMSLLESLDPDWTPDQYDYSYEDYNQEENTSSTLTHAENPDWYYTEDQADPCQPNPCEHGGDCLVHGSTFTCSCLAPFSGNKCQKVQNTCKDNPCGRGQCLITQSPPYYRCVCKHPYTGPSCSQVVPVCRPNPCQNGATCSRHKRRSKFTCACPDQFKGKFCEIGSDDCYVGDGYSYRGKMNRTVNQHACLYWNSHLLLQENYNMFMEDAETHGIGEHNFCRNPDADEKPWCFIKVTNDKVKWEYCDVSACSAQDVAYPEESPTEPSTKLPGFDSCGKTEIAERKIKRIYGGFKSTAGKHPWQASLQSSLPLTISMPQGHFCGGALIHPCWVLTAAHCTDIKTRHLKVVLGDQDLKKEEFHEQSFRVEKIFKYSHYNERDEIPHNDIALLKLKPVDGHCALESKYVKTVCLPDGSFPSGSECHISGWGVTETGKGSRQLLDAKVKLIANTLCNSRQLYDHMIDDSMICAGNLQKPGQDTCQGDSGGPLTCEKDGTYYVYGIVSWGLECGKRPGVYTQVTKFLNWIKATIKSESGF", "test": "anti-HABP2 immunoprecipitation of EC media, non-reducing SDS-PAGE, immunoblot with anti-HABP2 or anti-C1INH"}, "purified HABP2": {"target": "T1, purified HABP2 (Homo sapiens, UniProt Q14520)", "T1 construct": "host or cells: human pulmonary endothelial cells (EC); secreted into the medium, immunoprecipitated with anti-HABP2 antibody", "T1 sequence (Q14520 24-560)": "as the sequence (Q14520 24-560 limits assumed) above", "test": "HABP2 protease assay (QuantiCleave, succinylated casein)", "assay_type": "biochemical", "conditions": "100 μM purified PABD, 500 nM HMW-HA or LMW-HA", "method": "HABP2 protease assay. Protease activity is measured using the QuantiCleave™ Protease Assay Kit (Pierce). Briefly, the immunobeads are incubated with succinylated casein for one hour followed by development with TNBSA (2,4,6-trinitrobenzene sulfonic acid) and read at 450 nm.\nHABP2 protein purification and protease activity determination. Media from HABP2 overexpression vector-transfected EC (Origene) was immunoprecipitated with anti-HABP2 antibody-conjugated Sepharose beads (Sigma). The immunobeads were then extensively washed in 50 mM Borate, pH=8.5 and eluted with 1M NaCl with 0.1% NP-40 and dialyzed against a 1,000 fold excess of 50 mM Borate, pH=8.5. Protein assays were performed to quantitate total protein. The purified protein was run on SDS-PAGE and either immunoblotted with anti-HABP2 antibody (Novus Biologicals) or stained with Imperial™ protein stain (Pierce) to check for purity. Protease activity was measured using the QuantiCleave™ Protease Assay Kit (Pierce). Briefly, the immunobeads were incubated with succinylated casein for one hour followed by development with TNBSA (2,4,6-trinitrobenzene sulfonic acid) and read at 450 nm.\nDetermination of the role of HMW-HA/HABP2/C1INH interactions in regulating angiogenesis in vitro. Human pulmonary EC (Cambrex), grown in EBM-2 complete medium (Cambrex) at 37° C. in a humidified atmosphere of 5% CO2, 95% air, with passages 6-10 used for experimentation will be treated with or without 100 nM HMW-HA and/or 100 nM VEGF in the presence or absence of HABP2 and/or C1INH overexpression vectors (Origene), exogenous purified recombinant HABP2 polyanion binding domain and/or C1INH (Novus Biologicals) and/or siRNA (scramble, HABP2 or C1INH). For HABP2 protease activity determination, media from HABP2 overexpressing EC (see above) was immunoprecipitated with anti-HABP2 antibody-conjugated Sepharose beads (Sigma). The immunobeads were then extensively washed in 50 mM Borate, pH=8.5 and protease activity was measured using the QuantiCleave™ Protease Assay Kit (Pierce). Briefly, the immunobeads were incubated with succinylated casein for one hour followed by development with TNBSA (2,4,6-trinitrobenzene sulfonic acid) and read at 450 nm."}}, "note": "“Also recorded” adds a separate entry of the source."}
{"molecule": "C[C@@H](O)CCCCn1c(=O)c2c(ncn2C)n(C)c1=O", "note": "[Lisofylline]", "values": [{"measurement": "Outcome (clinical trials in ARDS)", "setting": "ARDS", "value": "trials failed to show efficacy in increasing"}]}
{"molecule": "C[C@H]1C[C@@H]2[C@H]([C@@H](O)C[C@@]3(C)[C@H]2CC[C@]3(O)C(=O)CO)[C@@]2(C)C=CC(=O)C=C12", "note": "[Methyprednisolone]", "values": [{"measurement": "hospital mortality", "setting": "ARDS; administered through the fibroproliferative stage of ARDS, 62% in placebo cohort", "value": "hospital mortality to 12% from 62% in placebo"}]}
{"molecule": "C[C@@H](N)[C@H]1CC[C@H](C(=O)Nc2ccncc2)CC1", "note": "[Y-27632, reference compound]", "values": [{"measurement": "LPS-induced phosphorylation of MARCKS and NHE1", "setting": "MARCKS and NHE1", "value": "inhibit LPS-induced phosphorylation of MARCKS and NHE1"}]}
{"molecule": "HGF: Recombinant human hepatocyte growth factor (HGF), Chemicon International", "values": [{"measurement": "recruitment of Tiam1, cortactin and dynamin 2 to CEM", "setting": "[1]; HGF 25 ng/ml", "value": "increased recruitment to these caveolin-enriched plasma membrane microdomain structures"}, {"measurement": "recruitment of total CD44v10 into CD44s-containing CEM", "setting": "[1]; HGF 25 ng/ml", "value": "~70", "unit": "%"}, {"measurement": "recruitment of total c-Met into CD44s-containing CEM", "setting": "[1]; HGF 25 ng/ml", "value": "~55", "unit": "%"}, {"measurement": "association of c-Met with CD44v10 in CEM", "setting": "[1]; HGF 25 ng/ml, 5, 15 or 30 min", "value": "induce an association that is time-dependent of c-Met with CD44v10"}, {"measurement": "Rac1 activation", "setting": "Rac1", "value": "induced Rac1 activation"}, {"measurement": "protective effect on LPS-induced pulmonary hyper-permeability (BAL) in knockout mice", "setting": "[2]; CD44 knockout (and, where stated, Caveolin-1 knockout) mice, same regimen", "value": "markedly attenuated in the CD44 knockout mouse; also recorded: significant difference (p<0.05) between the wildtype and CD44 knockout mouse HGF+LPS treatment"}, {"measurement": "LPS-induced pulmonary hyper-permeability (BAL protein concentration)", "setting": "[2]; wildtype C57BL/6J mice, LPS 2.5 mg/kg intratracheally, HMW-HA 1.5 mg/kg or HGF 50 μg/kg intravenously 4 hours after LPS, BAL at 24 hours", "value": "pulmonary hyper-permeability was attenuated; also recorded: significant difference (p<0.05) between LPS treatment and HGF+LPS treatment"}]}
{"molecule": "Nitric Oxide [NO]", "values": [{"measurement": "adverse effects", "setting": "ARDS; ARDS patients", "value": "causes methemoglobinemia, increased"}, {"measurement": "pulmonary artery pressure", "setting": "ARDS; ARDS patients", "value": "NO reduces pulmonary artery pressure but"}, {"measurement": "Outcome (clinical trials in ARDS)", "setting": "ARDS", "value": "several multicenter clinical trials have shown no"}]}
{"molecule": "C1INH, human (other, UniProt P05155 23-500, looked up, also called C1NH; C1 NH) NPNATSSSSQDPESLQDRGEGKVATTVISKMLFVEPILEVSSLPTTNSTTNSATKITANTTDEPTTQPTTEPTTQPTIQPTQPTTQLPTDSPTQPTTGSFCPGPVTLCSDLESHSTEAVLGDALVDFSLKLYHAFSAMKKVETNMAFSPFSIASLLTQVLLGAGENTKTNLESILSYPKDFTCVHQALKGFTTKGVTSVSQIFHSPDLAIRDTFVNASRTLYSSSPRVLSNNSDANLELINTWVAKNTNNKISRLLDSLPSDTRLVLLNAIYLSAKWKTTFDPKKTRMEPFHFKNSVIKVPMMNSKKYPVAHFIDQTLKAKVGQLQLSHNLSLVILVPQNLKHRLEDMEQALSPSVFKAIMEKLEMSKFQPTLLTLPRIKVTTSQDMLSIMEKLEFFDFSYDLNLCGLTEDPDLQVSAMQHQTVLELTETGVEAAAASAISVARTLLVFEVQQPFLFVLWDQQHKFPVFMGRVYDPRA", "values": [{"measurement": "binding result", "setting": "[3]", "value": "binds"}]}
{"molecule": "recombinant peptide of the PABD of HABP2: recombinant HABP2 polyanion binding domain, amino acids 110-188 of SEQ ID NO:2 (SEQ ID NO:37) (protein, listed as Homo sapiens) KVQNTCKDNPCGRGQCLITQSPPYYRCVCKHPYTGPSCSQVVPVCRPNPCQNGATCSRHKRRSKFTCACPDQFKGKFCE", "values": [{"measurement": "blocking of HA effects on HABP2 protease activity", "setting": "purified HABP2", "value": "The effects of LMW-HA, but not HMW-HA, were blocked"}]}
